From patent US8217028B2, “1,2,4-oxadiazole indole compounds” (Glaxo Group Limited, priority 2008, dated 2012)

target: T1, human S1P1 receptor (EDG1) (Homo sapiens, UniProt P21453); assay: S1P1 GTPγS assay or S1P1 Tango assay (at least one of the above assays); type: cell-based; settings: in at least one of the S1P1 GTPγS and S1P1 Tango assays
T1 construct: expressed in transfected cells; host or cells: rat hepatoma cells (membranes, GTPγS assay) or Tango GPCR-bla U2OS cells (Tango assay)
Method: For membrane preparations all steps were performed at 4° C. Rat hepatoma cells stably expressing the human S1P1 receptor or Rat Basophilic Leukaemia cells (RBL) stably expressing human S1P3 receptor were grown to 80% confluency before being harvested into 10 ml Phospho-Buffered Saline (PBS) and centrifuged at 1200 rpm for 5 minutes. After removal of the supernatant, the pellet was re-suspended and cells were homogenised within a glass Warning blender for 2 bursts of 15 secs in 200 mls of buffer (50 mM HEPES, 1 mM leupeptin, 25 μg/ml bacitracin, 1 mM EDTA, 1 mM PMSF, 2 μM pepstatin A). The blender was plunged into ice for 5 mins after the first burst and 10-40 mins after the final burst to allow foam to dissipate. The material was then spun at 500 g for 20 mins and the supernatant spun for 36 mins at 48,000 g. The pellet was resuspended in the same buffer as above but without PMSF and pepstatin A. The material was then forced through a 0.6 mm needle, made up to the required volume, (usually ×4 the volume of the original cell pellet), aliquoted and stored frozen at −80° C.
Human S1P1 rat hepatoma membranes (1.5 μg/well) were adhered to a wheatgerm agglutinin (WGA)-coated scintillation proximity assay (SPA) beads (0.125 mg/well) in assay buffer (HEPES 20 mM, MgCl2 10 mM, NaCl 100 mM and pH adjusted to 7.4 using KOH 5M, GDP 10 μM FAC (final assay concentration) and saponin 90 μg/ml FAC was also added).
After 30 minutes pre-coupling on ice the bead and membrane suspension was dispensed into a white Greiner polypropylene LV384-well plate (5 μl/well), containing 0.1 μl of the compound. 5 μl/well [^35S]-GTPγS (0.5 nM final radioligand conc) made up in assay buffer was then added to agonist plates. The final assay cocktail (10.1 μl) was then centrifuged at 1000 rpm for 5 minutes then read immediately on a Viewlux reader.
All test compounds were dissolved in DMSO at a concentration of 10 mM and were prepared in 100% DMSO using a 1 in 4 dilution step to provide 11 point dose response curves. The dilutions were transferred to the assay plates ensuring that the DMSO concentration was constant across the plate for all assays. All data was normalized to the mean of 16 high and 16 low control wells on each plate. A four parameter curve fit was then applied.
Recombinant EDG1-bla/U2OS cells (contain the human Endothelial Differentiation Gene 1 (EDG1) linked to a TEV protease site and a Ga14-VP16 transcription factor stably integrated into the Tango GPCR-bla U2OS parental cell line) were suspended in assay medium (Invitrogen Freestyle Expression Medium) at a density of 312, 500 cells/ml. Add 100 μl/well of the assay medium to the cell-free control wells (column 12) and 100 μl/well of the cell suspension to the test compound wells (row 2-8, column 1-10), the unstimulated control wells (DMSO) (column 11), and stimulated control wells (S1P) (row 1, column 1-10) in a Corning black-well, clear bottom 96-well plate. Cells were incubated at 37° C., 5% CO2 for 44-48 h. […]
After incubation at 37° C., 5% CO2 for 5 h, 25 μl of 6× substrate mixture (6 μl Solution A (1 mg LiveBLAzer™-FRET B/G substrate (CCF4-AM) in 912 μl DMSO) plus 60 μl Solution B plus 934 μl Solution C) was added to each well and incubate at room temperature for 2 h in dark. The plate was finally read on EnVision for two emission channels (460 nm and 530 nm). […]

T1 sequence (P21453 whole entry): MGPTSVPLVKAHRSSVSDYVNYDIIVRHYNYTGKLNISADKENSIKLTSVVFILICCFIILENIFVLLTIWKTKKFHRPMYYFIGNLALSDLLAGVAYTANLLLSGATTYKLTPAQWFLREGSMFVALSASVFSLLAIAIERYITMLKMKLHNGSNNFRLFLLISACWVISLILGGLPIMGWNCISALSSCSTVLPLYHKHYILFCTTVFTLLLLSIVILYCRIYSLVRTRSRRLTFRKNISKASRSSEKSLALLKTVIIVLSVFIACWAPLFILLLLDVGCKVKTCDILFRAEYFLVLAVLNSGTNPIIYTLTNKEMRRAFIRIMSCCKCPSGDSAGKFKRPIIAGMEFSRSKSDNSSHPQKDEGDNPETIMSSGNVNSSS

EC50 [µM]	SMILES
< 10	CC(C)Cn1cc(CCC(=O)O)c2cccc(-c3noc(-c4ccc(OC(C)C)c(Cl)c4)n3)c21 [Example 30, 3-[7-(5-{3-chloro-4-[(1-methylethyl)oxy]phenyl}-1,2,4-oxadiazol-3-yl)-1-(2-methylpropyl)-1H-indol-3-yl]propanoic acid]
< 10	CCCCn1cc(CCC(=O)O)c2cccc(-c3noc(-c4ccc(OC(C)C)c(Cl)c4)n3)c21 [Example 29, 3-[1-butyl-7-(5-{3-chloro-4-[(1-methylethyl)oxy]phenyl}-1,2,4-oxadiazol-3-yl)-1H-indol-3-yl]propanoic acid]
< 10	COc1ccc(-c2nc(-c3cccc4c(CCC(=O)O)cn(C)c34)no2)cc1OC [Example 44, 3-(7-{5-[3,4-bis(methyloxy)phenyl]-1,2,4-oxadiazol-3-yl}-1-methyl-1H-indol-3-yl)propanoic acid]

Further lines, the compound ahead of its results:

SMILES	EC50 [µM]
CC(C)Oc1ncc(-c2nc(-c3ccc4c(CN5CCC(C(=O)O)CC5)c[nH]c4c3)no2)cc1Cl [Example 78, 1-{[6-(5-{5-chloro-6-[(1-methylethyl)oxy]-3-pyridinyl}-1,2,4-oxadiazol-3-yl)-1H-indol-3-yl]methyl}-4-piperidinecarboxylic acid]	< 10
CC(C)Oc1ccc(-c2nc(-c3ccc4[nH]c(C(=O)O)cc4c3)no2)cc1Cl [Example 8, Sodium 5-(5-{3-chloro-4-[(1-methylethyl)oxy]phenyl}-1,2,4-oxadiazol-3-yl)-1H-indole-2-carboxylate]	< 10
